The record followed here is US11970474B2, “Substituted benzodiazoles and use thereof in therapy” (THOMAS HELLEDAYS STIFTELSE FÖR MEDICINSK FORSKNING, priority 2018, dated 2024).

Read-outs that look alike come from different tables or passages of the source.

One assay has as its system MLE12 cells. As to the kind of experiment: Cell viability assay in MLE12 cells (resazurin). The format is cell-based, mouse. As to conditions: Mus musculus, TNF-α 20 ng/ml, resazurin added after 24 hours culture. The method in brief: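 MLE12 cells (7500 cells/well) were seeded onto 11-point duplicate compound dose-responses, with TNF-α (final 20 ng/ml) added after 1 hour at 37° C. After 24 hours, resazurin was added for 6 hours and resorufin fluorescence read (ex544 nm/em595 nm). EC50 values were calculated by curve fitting.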
On the technique in general: The colour change of resazurin is a common sign of viable cells or microbes.

The next assay relates to CCL2. Description: Mouse CCL2 assay in MLE12 cells. The format is cell-based. As to conditions: Mus musculus, MLE12, 30 h. In outline:
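CCL2 in supernatants was quantified by two-antibody HTRF FRET, read at 620 and 665 nm after overnight RT incubation, with IC50 derived from delta ratios. Cells were SV40-transformed mouse MLE12, treated with duplicate 6-point compound series for 1 h before 30 h TNF-α (20 ng/ml final) stimulation.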

A further assay has as its target OGG1 (Homo sapiens (Human), UniProt O15527). Description: In vitro OGG1 activity assay. The format is biochemical. Conditions: 800 pM OGG1 enzyme, 2 nM human APEX1, 10 nM 8-oxoA:C substrate. The method in brief: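 Read-out is fluorescein fluorescence, with compounds in DMSO added first, then enzyme and substrate. OGG1 excises its substrate base from a quenched fluorophore-labelled duplex, and surplus APEX1 cuts the resulting apurinic site. The duplex then melts and fluorescence rises in proportion to glycosylase activity.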

Where [1] appears, read: MLE12 cells, TNF-α 20 ng/ml, supernatant after 30 hours, HTRF, read-out: CCL2 (EC50).

Chain of OGG1 (O15527 whole entry): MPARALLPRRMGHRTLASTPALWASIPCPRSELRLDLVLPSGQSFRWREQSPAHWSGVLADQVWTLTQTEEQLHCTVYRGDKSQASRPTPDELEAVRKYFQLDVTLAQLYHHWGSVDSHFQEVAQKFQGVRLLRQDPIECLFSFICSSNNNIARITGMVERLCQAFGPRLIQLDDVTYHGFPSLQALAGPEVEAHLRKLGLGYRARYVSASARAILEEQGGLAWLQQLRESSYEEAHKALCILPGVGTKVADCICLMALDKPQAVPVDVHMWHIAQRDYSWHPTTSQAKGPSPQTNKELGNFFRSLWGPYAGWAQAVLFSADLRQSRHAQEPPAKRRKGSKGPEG

Broadly, the IC50 is the point on the concentration scale where inhibition reaches its midpoint. Read a high IC50 as lower potency. As usually defined, the EC50 is the concentration that produces a half-maximal response. Consider `COc1cc(NC(=O)[C@H]2CC[C@@H](n3c(=O)[nH]c4c(N(C)CCN)cccc43)CC2)ccc1C` [Example 298, Cis-4-{4-[(2-aminoethyl)(methyl)amino]-2-oxo-2,3-dihydro-1H-1,3-benzodiazol-1-yl}-N-(3-methoxy-4-methylphenyl)cyclohexane-1-carboxamide], for which the IC50 turned out to be 29.2 µM with MLE12 cells (MLE12, 24 h) and 0.012 µM against OGG1. Also, the concentration giving a half-maximal response (EC50) with CCL2 (setting [1]) came to 36600 nM.

With `COc1cc(NC(=O)[C@H]2CC[C@@H](n3c(=O)[nH]c4c(C(=O)N5CCNC(C(F)(F)F)C5)cccc43)CC2)ccc1C` (stereo partly drawn) [Example 274, Cis-N-(3-methoxy-4-methylphenyl)-4-{2-oxo-4-[3-(trifluoromethyl)piperazine-1-carbonyl]-2,3-dihydro-1H-1,3-benzodiazol-1-yl}cyclohexane-1-carboxamide], the half-inhibitory concentration (IC50) in the assay on MLE12 cells (MLE12, 24 h) stood at 18.1 µM; against OGG1, 0.0921 µM. In addition, the EC50 with CCL2 (setting [1]) is 39000 nM.

In the case of `O=C(Nc1ccc(Cl)c(F)c1)N1C2CCC1CC(n1c(=O)[nH]c3c(-c4ccc(CO)nc4)cccc31)C2` (stereo not drawn) [Example 94, N-(4-chloro-3-fluorophenyl)-3-{4-[6-(hydroxymethyl)pyridin-3-yl]-2-oxo-2,3-dihydro-1H-1,3-benzodiazol-1-yl}-(endo)-8-azabicyclo[3.2.1]octane-8-carboxamide], the half-inhibitory concentration (IC50) in the assay on MLE12 cells (MLE12, 24 h) came to 8.45 µM; at OGG1, 0.105 µM. Also, the EC50 with CCL2 (setting [1]) came out at 20200 nM.

As for `O=c1[nH]c2c(Br)cccc2n1[C@H]1CC[C@@H](C(=O)Nc2ccc3ncccc3c2)CC1` [Example 204, Cis-4-(4-bromo-2-oxo-2,3-dihydro-1H-1,3-benzodiazol-1-yl)-N-(quinolin-6-yl)cyclohexane-1-carboxamide], the 50% inhibitory concentration (IC50) in the assay on MLE12 cells (MLE12, 24 h) was found to be 7.93 µM; against OGG1, 0.0656 µM. Also, in the assay on CCL2 (setting [1]), the concentration for a half-maximal effect (EC50) is 12900 nM.

Regarding `Cc1ccc(NC(=O)[C@H]2CC[C@@H](n3c(=O)[nH]c4c(Cl)cccc43)CC2)cc1` [Example 149, (Cis)-4-(4-chloro-2-oxo-2,3-dihydro-1H-1,3-benzodiazol-1-yl)-N-(4-methylphenyl)cyclohexane-1-carboxamide], the half-maximal inhibitory concentration (IC50) in the assay with MLE12 cells (MLE12, 24 h) is 16.7 µM; on OGG1, 0.086 µM. Moreover, the 50% effective concentration (EC50) with CCL2 (setting [1]) was 33700 nM.

For `CN(C)CCNC(=O)c1cnn(-c2cccc3c2[nH]c(=O)n3C2CCN(C(=O)Nc3ccc(I)cc3)CC2)c1` [Example 89, 4-(4-(4-((2-(Dimethylamino)ethyl)carbamoyl)-1H-pyrazol-1-yl)-2-oxo-2,3-dihydro-1H-benzo[d]imidazol-1-yl)-N-(4-iodophenyl)piperidine-1-carboxamide 2,2,2-trifluoroacetate], the half-inhibitory concentration (IC50) in the assay with MLE12 cells (MLE12, 24 h) was 25.1 µM; against OGG1 it was 0.09 µM. In addition, the EC50 with CCL2 (setting [1]) was 47100 nM.

Consider `COc1ccc(NC(=O)[C@H]2CC[C@@H](n3c(=O)[nH]c4c(Br)cccc43)CC2)cc1OC` [Example 192, Cis-4-(4-bromo-2-oxo-2,3-dihydro-1H-1,3-benzodiazol-1-yl)-N-(3,4-dimethoxyphenyl)cyclohexane-1-carboxamide], for which the concentration for half-maximal inhibition (IC50) stood at 15.7 µM with MLE12 cells (MLE12, 24 h) and 0.0342 µM against OGG1. In the assay on CCL2 (setting [1]), the EC50 amounted to 32900 nM.

With `Cc1cc(NC(=O)[C@H]2CC[C@@H](n3c(=O)[nH]c4c(Br)cccc43)CC2)ccc1O` [Example 194, Cis-4-(4-bromo-2-oxo-2,3-dihydro-1H-1,3-benzodiazol-1-yl)-N-(4-hydroxy-3-methylphenyl)cyclohexane-1-carboxamide], the IC50 with MLE12 cells (MLE12, 24 h) was 15.6 µM; at OGG1, 0.0172 µM. Also, the EC50 in the assay with CCL2 (setting [1]) was determined as 33500 nM.

For the compound `CNCCOc1cccc2c1[nH]c(=O)n2[C@H]1CC[C@@H](C(=O)Nc2ccc(C)c(OC)c2)CC1` [Example 309, Cis-N-(3-methoxy-4-methylphenyl)-4-{4-[2-(methylamino)ethoxy]-2-oxo-2,3-dihydro-1H-1,3-benzodiazol-1-yl}cyclohexane-1-carboxamide], the half-inhibitory concentration (IC50) with MLE12 cells (MLE12, 24 h) worked out at 15.6 µM; against OGG1, 0.00326 µM. For the same compound, the EC50 with CCL2 (setting [1]) was determined as 27800 nM.

For `O=c1[nH]c2c(Cl)cccc2n1[C@H]1CC[C@@H](C(=O)Nc2ccc3cc[nH]c3c2)CC1` [Example 148, (Cis)-4-(4-chloro-2-oxo-2,3-dihydro-1H-1,3-benzodiazol-1-yl)-N-(1H-indol-6-yl)cyclohexane-1-carboxamide], the IC50 with MLE12 cells (MLE12, 24 h) was 15.7 µM; on OGG1 it was 0.098 µM. Also, the EC50 with CCL2 (setting [1]) turned out to be 31700 nM.

`COc1cc(NC(=O)[C@H]2CC[C@@H](n3c(=O)[nH]c4c(OCCCN(C)C)cccc43)CC2)ccc1C` [Example 306, Cis-4-{4-[3-(dimethylamino)propoxy]-2-oxo-2,3-dihydro-1H-1,3-benzodiazol-1-yl}-N-(3-methoxy-4-methylphenyl)cyclohexane-1-carboxamide]: the IC50 came out at 7.15 µM with MLE12 cells (MLE12, 24 h) and 0.00282 µM against OGG1. Further, the 50% effective concentration (EC50) in the assay with CCL2 (setting [1]) was determined as 8080 nM.

Take `O=c1[nH]c2c(Br)cccc2n1[C@H]1CC[C@@H](C(=O)Nc2ccc3c(c2)OCCO3)CC1` [Example 197, Cis-4-(4-bromo-2-oxo-2,3-dihydro-1H-1,3-benzodiazol-1-yl)-N-(2,3-dihydro-1,4-benzodioxin-6-yl)cyclohexane-1-carboxamide]: the IC50 with MLE12 cells (MLE12, 24 h) stood at 19.5 µM; against OGG1, 0.0389 µM. In the assay on CCL2 (setting [1]), the EC50 was determined as 30200 nM.

Consider `O=C(Nc1ccc(Cl)c(Cl)c1)N1C2CCC1CC(n1c(=O)[nH]c3c(Br)cccc31)C2` (stereo not drawn) [Example 72, 3-(4-Bromo-2-oxo-2,3-dihydro-1H-1,3-benzodiazol-1-yl)-N-(3,4-dichlorophenyl)-(endo)-8-azabicyclo[3.2.1]octane-8-carboxamide], for which the IC50 was 6.31 µM in the assay with MLE12 cells and 0.067 µM against OGG1. Also, in the assay with CCL2 (read-out: CCL2 (EC50, nM)), the EC50 was determined as 21500 nM.

With `COc1cc(NC(=O)[C@H]2CC[C@@H](n3c(=O)[nH]c4c(NC(=O)[C@@H]5C[C@@H](O)CN5)cccc43)CC2)ccc1C` [Example 286, (2S,4R)-4-Hydroxy-N-{2-oxo-1-[cis-4-[(3-methoxy-4-methylphenyl)carbamoyl]cyclohexyl]-2,3-dihydro-1H-1,3-benzodiazol-4-yl}pyrrolidine-2-carboxamide], the IC50 was determined as 20.3 µM in the assay on MLE12 cells (MLE12, 24 h) and 0.0181 µM at OGG1. Also, the EC50 in the assay with CCL2 (setting [1]) is over 33000 nM.

Take `COc1cc(NC(=O)[C@H]2CC[C@@H](n3c(=O)[nH]c4cc(C#N)ccc43)CC2)ccc1C` [Example 238, Cis-4-(5-cyano-2-oxo-2,3-dihydro-1H-1,3-benzodiazol-1-yl)-N-(3-methoxy-4-methylphenyl)cyclohexane-1-carboxamide]: the IC50 with MLE12 cells (MLE12, 24 h) amounted to 9.18 µM; against OGG1, 0.0409 µM. Further, the half-maximal effective concentration (EC50) in the assay with CCL2 (setting [1]) is 27100 nM.

Take `COc1cc(NC(=O)[C@H]2CC[C@@H](n3c(=O)[nH]c4c(C(=O)NCc5ncc[nH]5)cccc43)CC2)ccc1C` [Example 270, N-[(1H-Imidazol-2-yl)methyl]-2-oxo-1-[cis-4-[(3-methoxy-4-methylphenyl)carbamoyl]cyclohexyl]-2,3-dihydro-1H-1,3-benzodiazole-4-carboxamide]: the IC50 was determined as 16.8 µM in the assay on MLE12 cells (MLE12, 24 h) and 0.00039 µM on OGG1. Besides, the EC50 in the assay with CCL2 (setting [1]) is 32900 nM.

Regarding `COc1cc(NC(=O)[C@H]2CC[C@@H](n3c(=O)[nH]c4c(N5CCC(N)C5)cccc43)CC2)ccc1C` (stereo partly drawn) [Example 282, Cis-4-[4-(3-aminopyrrolidin-1-yl)-2-oxo-2,3-dihydro-1H-1,3-benzodiazol-1-yl]-N-(3-methoxy-4-methylphenyl)cyclohexane-1-carboxamide], the 50% inhibitory concentration (IC50) in the assay with MLE12 cells (MLE12, 24 h) amounted to 27.5 µM; against OGG1, 0.0101 µM. The concentration giving a half-maximal response (EC50) with CCL2 (setting [1]) was determined as 28600 nM.

In the case of `COc1c(F)cc(NC(=O)[C@H]2CC[C@@H](n3c(=O)[nH]c4c(Br)cccc43)CC2)cc1F` [Example 160, (Cis)-4-(4-bromo-2-oxo-2,3-dihydro-1H-1,3-benzodiazol-1-yl)-N-(3,5-difluoro-4-methoxyphenyl)cyclohexane-1-carboxamide], the IC50 with MLE12 cells (MLE12, 24 h) amounted to 8.18 µM; against OGG1, 0.081 µM. For the same compound, the EC50 in the assay with CCL2 (setting [1]) is 25600 nM.

As to `O=C(Nc1ccc(I)cc1)N1CCC(n2c(=O)[nH]c3c(-n4cncn4)cccc32)CC1` [Example 23, N-(4-iodophenyl)-4-[2-oxo-4-(1H-1,2,4-triazol-1-yl)-2,3-dihydro-1H-1,3-benzodiazol-1-yl]piperidine-1-carboxamide], the IC50 is 19.9 µM in the assay with MLE12 cells (MLE12, 24 h) and 0.728 µM against OGG1. The half-maximal effective concentration (EC50) in the assay on CCL2 (setting [1]) is 29000 nM.

As to `COc1ccc(NC(=O)[C@H]2CC[C@@H](n3c(=O)[nH]c4c(Br)cccc43)CC2)cc1Cl` [Example 123, (Cis)-4-(4-bromo-2-oxo-2,3-dihydro-1H-1,3-benzodiazol-1-yl)-N-(3-chloro-4-methoxyphenyl)cyclohexane-1-carboxamide], the half-inhibitory concentration (IC50) was 10 µM with MLE12 cells (MLE12, 24 h) and 0.026 µM at OGG1. The concentration for a half-maximal effect (EC50) in the assay with CCL2 (setting [1]) is 24200 nM.

`COC(=O)c1cccc2c1[nH]c(=O)n2[C@H]1CC[C@@H](C(=O)Nc2ccc(C)c(OC)c2)CC1` [Example 258, Methyl 2-oxo-1-[cis-4-[(3-methoxy-4-methylphenyl)carbamoyl]cyclohexyl]-2,3-dihydro-1H-1,3-benzodiazole-4-carboxylate]: the IC50 with MLE12 cells (MLE12, 24 h) came to 11.3 µM; at OGG1, 0.00583 µM. In addition, in the assay with CCL2 (setting [1]), the concentration for a half-maximal effect (EC50) amounted to 42700 nM.
